Data as given in PMC9873282, “Design, synthesis and evaluation of quinoline-O-carbamate derivatives as multifunctional agents for the treatment of Alzheimer’s disease” (Journal of Enzyme Inhibition and Medicinal Chemistry, 2023).
Values joined by “and” are separate entries in the source; they are usually repeats but may differ in a detail not shown here. Equal values may be shown once.

Tests used:
[1] = system: Aβ25-35-induced PC12 cells injury; test: Neuroprotective effect on Aβ25-35-induced PC12 cells injury (CCK-8); assay type: cell-based; details: 25 µM Aβ25-35; model cell viability 57.3%
Method: (§1) The neuroprotective effect of compounds 3a, 3c, 3e, 3f, 3k, 3m, and 3n on Aβ25–35-induced PC12 cells injury were evaluated using CCK-8 assay. […] Furthermore, as shown in Figure 12(B), when PC12 cells were exposed to 25 µM Aβ25-35, the cell viability sharply declined to 57.3% (p < 0.01) compared with untreated group.
• Preparation of Aβ25-35 aggregation. Aβ25-35 was purchased from sigma. 1 mg Aβ25-35 was dissolved in 943 µL of sterilised deionised water to obtain 1 mM stock solution, aliquoted, –20 °C preservation. Removing the appropriate volume in a 48-well plate and incubated in a 37 °C incubator for two days to allow its ageing to accumulate and produce neurotoxicity. After aggregation was completed, the solution was diluted with PBS to get 25 µM solution of Aβ25-35 aggregation. • Neuroprotective effects of compounds on Aβ25-35-induced PC12 cells injury
(§2) The PC12 cells during the logarithmic growth phase were digested and centrifuged with pancreatic enzyme solution, the cells were resuspended by adding the prepared media solution, and piped evenly with a pipette to seed in a 96-well cell culture plate (cell concentration adjusted to 2.0 × 10^4 cell·mL^−1). Each well was added 100 µL complete medium was added to each well and incubated at 37 °C and 5% CO2 for 24 h.
After incubation for 24 h, PC12 cells were divided into blank group, control group, Aβ25-35 model group and tested compounds group (5, 10, 20 µM). Then the original medium was discarded, and 100 µL new complete medium were added to PC12 cells, and the tested compounds group was added to 100 µL complete medium containing different concentrations (5, 10, and 20 µM) of tested compounds, incubated for 2 h at 37 °C, 5% CO2 conditions. After incubation for 2 h, 10 µL Aβ25-35 solution was added to the tested compounds groups and model group (the final concentration of Aβ25-35 was 25 µM), and incubated for 24 h at 37 °C, 5% CO2 conditions, 10 µL CCK-8 was added to each well and further incubated for 1 h at 37 °C and 5% CO2. Finally, the OD value was measured at 450 nm using a microplate reader, and each concentration set three wells. The cell survival rate (%) was determined according to the following formula: cell viability (%) = {(ODdrug−ODblank)}/{(ODcontrol−ODblank)}.

[2] = system: IL-6; test: IL-6 production in LPS-stimulated BV-2 cells (ELISA); assay type: cell-based; details: 1 µM and 2 µM; 1 µg/mL LPS 24 h
Method: Firstly, the cytotoxicity of compounds 3a, 3c, 3e, 3f, 3k, 3m and 3n were tested using CCK8 assay.
BV-2 cells (2 × 10^5 cells/well) were seeded in a 24-well cell culture plates. The cells were divided into blank control group, model group (1 µg/mL LPS), LPS + 2 µM compound group, LPS + 1 µM compound group. Each drug group was pre-treated with corresponding concentration of drug solution for 8 h. After 8 h, the culture medium was aspirated out. Except for the blank control group, which was added with DMEM medium, the other groups were stimulated with 1 µg/mL LPS for 24 h. Then cell supernatant was aspirated and centrifuged at 3000 rpm for 3 min. The content of NO in cell culture supernatant was determined by Griess method, and the levels of cytokines IL-6 and IL-1β in cell culture supernatant were determined by IL-6 ELISA kit and IL-1β ELISA kit, respectively.

[3] = system: PC12 cells; test: Cytotoxicity on PC12 cells; assay type: cell-based; details: at concentration below 40 µM
Method: as §1, §2

[4] = molecular target: T1, hAChE (Homo sapiens, UniProt P22303); test: hAChE reversibility of inhibition (recovery after dilution); assay type: biochemical
T1 construct: hAChE, from human erythrocytes AChE; purchased Sigma Aldrich; host or cells: human erythrocytes (natural source)
T1 sequence (P22303 32-617 isoform P22303-2 limits assumed): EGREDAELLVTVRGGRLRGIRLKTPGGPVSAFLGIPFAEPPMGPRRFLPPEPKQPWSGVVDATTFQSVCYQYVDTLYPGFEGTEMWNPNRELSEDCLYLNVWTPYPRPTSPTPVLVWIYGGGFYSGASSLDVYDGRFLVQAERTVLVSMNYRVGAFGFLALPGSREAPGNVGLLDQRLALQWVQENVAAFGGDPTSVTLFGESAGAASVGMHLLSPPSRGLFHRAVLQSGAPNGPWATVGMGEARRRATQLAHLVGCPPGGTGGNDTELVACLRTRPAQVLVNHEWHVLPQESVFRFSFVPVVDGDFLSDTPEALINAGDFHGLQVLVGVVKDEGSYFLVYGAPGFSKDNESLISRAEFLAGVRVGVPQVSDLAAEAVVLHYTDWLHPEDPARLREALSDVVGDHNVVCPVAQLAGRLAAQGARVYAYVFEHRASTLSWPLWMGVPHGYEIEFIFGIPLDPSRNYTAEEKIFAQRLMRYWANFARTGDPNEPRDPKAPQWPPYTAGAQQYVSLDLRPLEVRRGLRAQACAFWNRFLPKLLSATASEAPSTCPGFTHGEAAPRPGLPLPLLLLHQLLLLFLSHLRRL

[5] = molecular target: T2, eeAChE (Electrophorus electricus, UniProt O42275); test: Enzyme kinetic study (Lineweaver-Burk) of eeAChE inhibition; assay type: biochemical, electric eel
T2 construct: eeAChE, from the electric eel; purchased Sigma Aldrich; host or cells: electric eel (natural source)
T2 sequence (O42275 24-633): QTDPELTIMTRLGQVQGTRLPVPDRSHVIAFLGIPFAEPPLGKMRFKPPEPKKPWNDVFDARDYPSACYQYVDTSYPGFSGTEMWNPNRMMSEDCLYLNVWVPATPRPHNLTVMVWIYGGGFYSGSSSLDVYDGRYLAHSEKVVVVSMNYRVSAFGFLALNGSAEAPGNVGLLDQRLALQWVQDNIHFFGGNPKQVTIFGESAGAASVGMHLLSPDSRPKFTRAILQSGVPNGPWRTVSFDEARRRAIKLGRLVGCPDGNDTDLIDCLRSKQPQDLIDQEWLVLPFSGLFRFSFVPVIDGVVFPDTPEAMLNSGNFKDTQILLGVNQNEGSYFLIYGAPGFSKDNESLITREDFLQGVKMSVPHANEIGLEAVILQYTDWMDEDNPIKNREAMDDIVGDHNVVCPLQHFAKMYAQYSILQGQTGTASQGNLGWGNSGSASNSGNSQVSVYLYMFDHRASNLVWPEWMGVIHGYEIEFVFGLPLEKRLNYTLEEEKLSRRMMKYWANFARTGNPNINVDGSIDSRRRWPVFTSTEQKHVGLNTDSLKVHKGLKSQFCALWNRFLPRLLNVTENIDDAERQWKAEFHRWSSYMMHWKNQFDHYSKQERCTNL
Excerpt: In order to determine the mechanism of quinoline-O-carbamate derivatives, the representative compound 3f was chose to perform Lineweaver-Burk double reciprocal plot by plotting the initial velocities of the substrate at y-axis and increasing concentrations substrate at x-axis[27].
Figure 7. Enzyme kinetic study on the mechanism of eeAChE inhibition by compound 3f. (A) Overlaid Lineweaver-Burk reciprocal plots of AChE initial velocity at increasing acetylthiocholine concentration in the absence and in the presence of 3f were determined.

[6] = molecular target: T1, hAChE; test: biochemical; details: from human erythrocytes; read-out: IC50 ± SD hAChE
Method: (§3) Acetylcholinesterase (eeAChE, from the electric eel; hAChE, from human erythrocytes AChE), butyrylcholinesterase (eqBuChE, from equine serum; hBuChE, human serum BuChE), 5,5′-dithiobis-2-nitrobenzoic acid (Ellman’s reagent, DTNB), acetylthiocholine chloride (ATC), and butyrylthiocholine chloride (BTC) were purchased form Sigma Aldrich. The determination of AChE and BuChE inhibitory potency of the synthesised compounds were evaluated by Ellman assay, the detailed procedure referred to our previous work[26]^,[27].

[7] = molecular target: T3, hBuChE (Homo sapiens, UniProt P06276); test: biochemical
T3 construct: hBuChE, human serum BuChE; purchased Sigma Aldrich; host or cells: human serum (natural source)
T3 sequence (P06276 29-602): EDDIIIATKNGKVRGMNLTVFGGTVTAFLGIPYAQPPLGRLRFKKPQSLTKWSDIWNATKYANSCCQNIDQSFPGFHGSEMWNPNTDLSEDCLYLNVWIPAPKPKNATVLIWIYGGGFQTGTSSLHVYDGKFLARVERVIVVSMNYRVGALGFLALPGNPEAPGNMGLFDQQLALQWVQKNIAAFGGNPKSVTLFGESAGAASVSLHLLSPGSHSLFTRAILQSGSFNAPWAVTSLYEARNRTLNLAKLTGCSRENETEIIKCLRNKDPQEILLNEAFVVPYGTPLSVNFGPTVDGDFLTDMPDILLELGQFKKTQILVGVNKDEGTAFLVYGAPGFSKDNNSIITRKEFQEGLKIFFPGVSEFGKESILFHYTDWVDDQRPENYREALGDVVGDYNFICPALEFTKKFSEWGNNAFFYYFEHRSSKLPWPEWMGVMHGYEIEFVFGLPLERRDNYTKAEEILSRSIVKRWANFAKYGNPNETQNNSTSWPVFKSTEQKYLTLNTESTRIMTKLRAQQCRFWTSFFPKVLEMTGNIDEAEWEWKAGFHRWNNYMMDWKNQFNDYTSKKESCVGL
Method: as §3

Question: What does the source list for `CCN(CC)C(=O)Oc1cccc2ncccc12` [Compound 3f, Quinolin-5-yl diethylcarbamate]?
Answer: neuroprotective effect on Aβ25-35-induced PC12 cells injury [1]: remarkable neuroprotective effects at 5 and 10 µM; levels of IL-6 compared with model group [2]: significantly decreased; cytotoxicity on PC12 cells [3]: did not show any cytotoxicity; reversibility of hAChE inhibition [4]: reversible hAChE inhibitor; hAChE activity restored ([4]; 0.1 × IC50, at 120 min): 94.7%; type of AChE inhibition ([5]; Lineweaver-Burk plot): mixed-type; Ki ([5]; replot of slope versus concentration, read-out: inhibition constant Ki): 1730 nM; IC50 [6]: 5600 ± 70 nM; IC50 ([7]; from human serum, read-out: IC50 ± SD hBuChE): 2340 nM and 2300 nM; SI = IC50 (AChE)/IC50 (BuChE) ([7]; hAChE/hBuChE): 2.4
